Where a name gives a salt, the structure may show the parent alone.
What was measured:
[1] = test system: NCI-H292 lung cancer cells; experiment: FDA drug screening, complete media vs cholesterol-free media without statin (TABLE 1); format: cell-based, human
[2] = test system: NCI-H292 lung cancer cells; experiment: FDA drug screening, complete media vs cholesterol-free media with simvastatin (TABLE 2); format: cell-based, human; details: for Cholesterol-free media + simvastatin (0.04 μM) / Complete Media: NCI-H292 cells
[3] = NCI-H292 cells, cholesterol-free media without statin, FDA drug library screen
[4] = complete vs cholesterol-free media, >0 enhanced anti-cancer activity, about 0 neutral, <0 antagonist
[5] = cholesterol-free media with simvastatin 0.04 μM, cell growth value in FDA drug screen
[6] = complete media, cell growth value in FDA drug screen
[7] = complete media minus cholesterol-free media + simvastatin, >0 enhanced anti-cancer activity, about 0 neutral, <0 antagonist
[8] = Complete minus Cholesterol-free, >0 enhanced anti-cancer activity, about 0 neutral, <0 antagonist
[9] = NCI-H292 cells, cholesterol-free media without statin
[10] = drug in cholesterol-free media with simvastatin 0.04 μM
[11] = complete media vs cholesterol-free media + simvastatin (0.04 μM), >0 enhanced anti-cancer activity, about 0 neutral, <0 antagonist
[12] = FDA drug library screen, cholesterol-free media with simvastatin 0.04 μM
[13] = FDA drug library screen, complete media
[14] = NCI-H292 cells, complete media, FDA drug library screen
[15] = FDA library drug in cholesterol-free media with simvastatin 0.04 μM
[16] = FDA library drug in complete media
[17] = complete vs cholesterol-free media, greater than 0 enhanced anti-cancer activity, about 0 neutral, below 0 antagonists

CCCCN(CCCC)CC(O)c1cc(Cl)cc2c1-c1ccc(Cl)cc1/C2=C/c1ccc(Cl)cc1 (centres unmarked) [Lumefantrine]
Cholesterol-free [1, 3]: 0.9552
Difference [1, 4]: 0.22
Cholesterol-free media + simvastatin (0.04 μM) [2, 5]: 0.8537
Complete Media [2, 6]: 0.9184
Difference [2, 7]: 0.06

O=C1[C@@H]2[C@H]3CC[C@H](C3)[C@@H]2C(=O)N1C[C@@H]1CCCC[C@H]1CN1CCN(c2nsc3ccccc23)CC1 [Lurasidone (Hydrochloride)]
Difference [1, 8]: −0.27
Cholesterol-free [1, 9]: 1.115
Complete ([1]; NCI-H292 cells, complete media): 0.8426
Cholesterol-free media + simvastatin (0.04 μM) ([2]; cholesterol-free media with simvastatin 0.04 μM, FDA drug library screen (TABLE 2)): 0.8431
Complete Media ([2]; complete media, FDA drug library screen (TABLE 2)): 0.8046
Difference ([2]; complete media minus cholesterol-free media + simvastatin (0.04 μM), >0 enhanced anti-cancer activity, about 0 neutral, <0 antagonist): −0.04

CCCCCCO[C@@H](C)c1cccc(-c2csc(NC(=O)c3cc(Cl)c(/C=C(\C)C(=O)O)c(Cl)c3)n2)c1OC [Lusutrombopag]
Difference [1, 8]: −0.26
Cholesterol-free [1, 9]: 1.148
Complete ([1]; NCI-H292 cells, complete media): 0.8829
Cholesterol-free media + simvastatin (0.04 μM) [2, 10]: 0.9436
Complete Media ([2]; drug in complete media): 0.7827
Difference [2, 11]: −0.16

CCCNS(=O)(=O)Nc1ncnc(OCCOc2ncc(Br)cn2)c1-c1ccc(Br)cc1 [Macitentan]
Difference ([1]; Complete minus Cholesterol-free, greater than 0 enhanced anti-cancer activity, about 0 neutral, below 0 antagonists): −0.48
Cholesterol-free ([1]; NCI-H292 cells in cholesterol-free media without statin): 1.592
Complete ([1]; NCI-H292 cells in complete media): 1.113
Cholesterol-free media + simvastatin (0.04 μM) [2, 12]: 1.697
Complete Media [2, 13]: 1.56
Difference [2, 11]: −0.14

C=CCc1ccc(O)c(-c2cc(CC=C)ccc2O)c1 [Magnolol]
Cholesterol-free [1, 3]: 0.6495
Complete [1, 14]: 1.053
Difference ([1]; complete vs cholesterol-free media, […]): 0.40
Cholesterol-free media + simvastatin (0.04 μM) [2, 10]: 1.293
Complete Media ([2]; drug in complete media): 1.087
Difference ([2]; complete media vs cholesterol-free media + simvastatin (0.04 μM), […]): −0.21

CC(C)OC(=O)C(C(=O)OC(C)C)=C1SC=CS1 [Malotilate]
Difference [1, 8]: −0.31
Cholesterol-free [1, 9]: 1.163
Complete ([1]; NCI-H292 cells, complete media): 0.8568
Cholesterol-free media + simvastatin (0.04 μM) [2, 15]: 1.172
Complete Media [2, 16]: 0.8557
Difference [2, 11]: −0.32

OC[C@@H](O)[C@@H](O[C@H]1O[C@H](CO)[C@@H](O)[C@H](O)[C@H]1O)[C@H](O)[C@@H](O)CO [Maltitol]
Cholesterol-free [1, 9]: 1.093
Complete ([1]; NCI-H292 cells, complete media): 0.7088
Difference [1, 17]: −0.38
Cholesterol-free media + simvastatin (0.04 μM) [2, 15]: 1.264
Complete Media [2, 16]: 0.9377
Difference [2, 11]: −0.33

COC(=O)C1=C(C)NC(C)=C(C(=O)OCCN2CCN(C(c3ccccc3)c3ccccc3)CC2)C1c1cccc([N+](=O)[O-])c1 (centres unmarked) [Manidipine (dihydrochloride)]
Difference ([1]; Complete minus Cholesterol-free, greater than 0 enhanced anti-cancer activity, about 0 neutral, below 0 antagonist): −0.08
Cholesterol-free ([1]; NCI-H292 cells, FDA drug library screen, cholesterol-free media without statin): 0.814
Complete ([1]; NCI-H292 cells, FDA drug library screen, complete media): 0.7357
Cholesterol-free media + simvastatin (0.04 μM) [2, 5]: 1.023
Complete Media [2, 6]: 1.051
Difference [2, 7]: 0.03

CNCCCC12CCC(c3ccccc31)c1ccccc12 [Maprotiline (hydrochloride)]
Cholesterol-free [1, 9]: 1.347
Complete ([1]; NCI-H292 cells, complete media): 0.9995
Difference [1, 17]: −0.35
Cholesterol-free media + simvastatin (0.04 μM) [2, 15]: 1.215
Complete Media [2, 16]: 0.924
Difference [2, 11]: −0.29

Cc1ccc(NC(=O)c2ccc(CN3CCN(C)CC3)cc2)cc1Nc1nc(-c2cccnc2)cs1 [Masitinib]
Difference [1, 8]: −0.19
Cholesterol-free [1, 9]: 0.8775
Complete ([1]; NCI-H292 cells, complete media): 0.6881
Cholesterol-free media + simvastatin (0.04 μM) [2, 12]: 0.9334
Complete Media [2, 13]: 0.8067
Difference [2, 11]: −0.13

COC(=O)Nc1nc2ccc(C(=O)c3ccccc3)cc2[nH]1 [Mebendazole]
Cholesterol-free [1, 3]: 0.1458
Complete [1, 14]: 0.3848
Difference [1, 4]: 0.24
Cholesterol-free media + simvastatin (0.04 μM) [2, 5]: 0.4675
Complete Media [2, 6]: 0.5846
Difference [2, 7]: 0.12

Reference: patent publication US20250144067A1, “PERSONALIZED STARVATION THERAPY FOR CANCER” (Faeth Therapeutics, Inc., priority 2021, published 2025)
